Measured values published in US11560371B2, “Cereblon binding compounds, compositions thereof, and methods of treatment therewith” (Celgene Corporation, priority 2020, dated 2023).

Target: T1, AR (Homo sapiens, UniProt P10275)
T1 construct: endogenous in cells; host or cells: VCaP cells
T1 sequence (P10275 1-920): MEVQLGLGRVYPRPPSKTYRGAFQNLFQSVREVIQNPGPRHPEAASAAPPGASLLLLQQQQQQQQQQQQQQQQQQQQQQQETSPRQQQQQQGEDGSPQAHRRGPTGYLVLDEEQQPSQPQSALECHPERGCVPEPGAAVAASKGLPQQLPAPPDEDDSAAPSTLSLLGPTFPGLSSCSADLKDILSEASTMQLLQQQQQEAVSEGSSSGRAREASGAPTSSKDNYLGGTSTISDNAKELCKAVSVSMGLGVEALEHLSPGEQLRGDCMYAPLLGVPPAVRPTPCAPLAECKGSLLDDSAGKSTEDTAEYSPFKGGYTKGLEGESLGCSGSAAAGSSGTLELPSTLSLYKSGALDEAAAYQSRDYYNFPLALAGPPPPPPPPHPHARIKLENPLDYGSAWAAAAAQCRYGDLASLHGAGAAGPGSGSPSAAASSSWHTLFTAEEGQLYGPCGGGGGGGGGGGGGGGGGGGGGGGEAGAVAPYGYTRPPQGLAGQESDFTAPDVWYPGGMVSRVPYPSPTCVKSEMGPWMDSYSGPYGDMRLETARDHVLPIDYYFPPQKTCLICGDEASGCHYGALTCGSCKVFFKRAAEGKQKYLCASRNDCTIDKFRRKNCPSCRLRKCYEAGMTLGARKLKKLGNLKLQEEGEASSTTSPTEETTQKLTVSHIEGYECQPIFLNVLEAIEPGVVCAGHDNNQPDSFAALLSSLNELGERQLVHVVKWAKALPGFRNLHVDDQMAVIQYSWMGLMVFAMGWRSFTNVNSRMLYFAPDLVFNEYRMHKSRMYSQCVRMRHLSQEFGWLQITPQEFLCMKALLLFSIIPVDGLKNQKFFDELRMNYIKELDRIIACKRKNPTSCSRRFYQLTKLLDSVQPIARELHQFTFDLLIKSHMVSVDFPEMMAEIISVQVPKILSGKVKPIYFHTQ
Experiment: VCAP AR Degradation Assay
Format: cell-based
Settings: VCaP cells, 24 h, AR ELISA; for DC50: concentration of compound when AR level = 50% of DMSO control (50% AR degradation); for Y: lowest measured AR level normalized to DMSO control (AR degradation efficiency)
In short: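 VCaP cells (DMEM, 8% FBS) were treated 24 h at 37 °C with a 10-point 1:3 series from 5 µM final, with 0.1% DMSO control. Total AR in lysates was measured by sandwich ELISA as percent of DMSO. A 4-parameter fit gave DC50 (50% of control) and EC50; fitted Ymin marks degradation efficiency.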

| SMILES | DC50 [nM] | Y |
| --- | --- | --- |
| Cn1nc(N2CCC(=O)NC2=O)c2cccc(NC(=O)CN3CCC(CCO[C@H]4CC[C@H](N5C(=S)N(c6ccc(C#N)c(C(F)(F)F)c6)C(=O)C5(C)C)CC4)C(F)(F)C3)c21 (stereo partly drawn) [Cmpd 35, 2-(4-(2-(((trans)-4-(3-(4-Cyano-3-(trifluoromethyl)phenyl)-5,5-dimethyl-4-oxo-2-thioxoimidazolidin-1-yl)cyclohexyl)oxy)ethyl)-3,3-difluoropiperidin-1-yl)-N-(3-(2,4-dioxotetrahydropyrimidin-1(2H)-yl)-1-methyl-1H-indazol-7-yl)acetamide] | ≤ 2 | * (0<Y≤20%) |
| Cn1nc(N2CCC(=O)NC2=O)c2cccc(NC(=O)CN3CCC(CCO[C@H]4CC[C@H](N5C(=S)N(c6cnc(C#N)c(C(F)(F)F)c6)C(=O)C5(C)C)CC4)C(F)(F)C3)c21 (stereo partly drawn) [Cmpd 36, 2-(4-(2-(((trans)-4-(3-(6-Cyano-5-(trifluoromethyl)pyridin-3-yl)-5,5-dimethyl-4-oxo-2-thioxoimidazolidin-1-yl)cyclohexyl)oxy)ethyl)-3,3-difluoropiperidin-1-yl)-N-(3-(2,4-dioxotetrahydropyrimidin-1(2H)-yl)-1-methyl-1H-indazol-7-yl)acetamide] | ≤ 2 | * (0<Y≤20%) |
